In one assay the target is T1, Drosophila OR13a (Drosophila melanogaster, UniProt Q9VXL0).
T1 construct: expressed in transfected cells
T1 sequence (Q9VXL0 1-418): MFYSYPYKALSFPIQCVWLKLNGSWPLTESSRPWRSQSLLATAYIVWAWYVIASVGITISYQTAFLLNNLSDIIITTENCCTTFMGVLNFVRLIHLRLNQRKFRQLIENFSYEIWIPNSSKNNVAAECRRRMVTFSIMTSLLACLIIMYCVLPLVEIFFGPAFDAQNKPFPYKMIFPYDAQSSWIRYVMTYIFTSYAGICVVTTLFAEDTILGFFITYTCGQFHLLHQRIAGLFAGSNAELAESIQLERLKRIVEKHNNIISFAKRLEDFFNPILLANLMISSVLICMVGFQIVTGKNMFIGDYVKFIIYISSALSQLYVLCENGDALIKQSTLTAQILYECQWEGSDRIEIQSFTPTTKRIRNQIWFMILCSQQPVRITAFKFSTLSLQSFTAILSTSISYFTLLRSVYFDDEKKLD
T1 sequence (Q9VNB5 1-486 partner): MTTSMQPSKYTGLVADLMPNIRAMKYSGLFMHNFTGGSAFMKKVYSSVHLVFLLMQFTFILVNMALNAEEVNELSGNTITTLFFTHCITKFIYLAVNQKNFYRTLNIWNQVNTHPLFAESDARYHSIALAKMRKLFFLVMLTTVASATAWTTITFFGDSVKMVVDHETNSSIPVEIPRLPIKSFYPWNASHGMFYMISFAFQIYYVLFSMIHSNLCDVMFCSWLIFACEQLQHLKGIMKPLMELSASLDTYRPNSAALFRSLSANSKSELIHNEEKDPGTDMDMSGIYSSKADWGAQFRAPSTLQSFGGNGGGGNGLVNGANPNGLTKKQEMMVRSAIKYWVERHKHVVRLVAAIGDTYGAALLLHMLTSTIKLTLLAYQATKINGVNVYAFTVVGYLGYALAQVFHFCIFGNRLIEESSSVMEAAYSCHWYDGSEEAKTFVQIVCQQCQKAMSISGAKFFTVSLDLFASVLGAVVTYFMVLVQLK
Description: Calcium ion fluorescence (GCaMP6) assay, OR13a stable HEK293 cell line. It counts as cell-based. To be noted: for OR13a Average response (VUAA1-normalized): 50 μM VUAA1 = 1, responses not exceeding 0.05 considered 0; for DF norm AVERAGE OR13a: normalized fluorescence change, values below 0.05 threshold given as 0. The procedure, abridged:
(§1)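 Responses are VUAA1-normalized ΔF: each VOC-evoked calcium signal, (FMAX−F0)/F0 over 30 s after injection, divided by the same line's mean 50 µM VUAA1 response. Cells were doxycycline-induced HEK293 with GCaMP6 and the cognate Drosophila OR, in HEPES buffer pH 7.3; ligands tested 0.01–100 μM.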

In another assay the target is T2, Drosophila OR49b (Drosophila melanogaster, UniProt Q9V6H2).
T2 construct: expressed in transfected cells
T2 sequence (Q9V6H2 1-375): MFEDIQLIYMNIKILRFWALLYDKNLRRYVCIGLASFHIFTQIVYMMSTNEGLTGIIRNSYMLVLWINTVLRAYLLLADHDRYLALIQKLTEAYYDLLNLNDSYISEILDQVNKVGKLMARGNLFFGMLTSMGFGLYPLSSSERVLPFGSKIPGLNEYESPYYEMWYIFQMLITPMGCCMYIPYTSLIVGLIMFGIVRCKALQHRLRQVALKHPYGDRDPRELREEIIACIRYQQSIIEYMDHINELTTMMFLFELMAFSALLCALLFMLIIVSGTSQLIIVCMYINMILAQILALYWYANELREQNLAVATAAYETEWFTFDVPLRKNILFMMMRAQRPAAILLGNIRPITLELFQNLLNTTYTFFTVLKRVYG
T2 sequence (Q9VNB5 1-486 partner): T1 sequence (Q9VNB5 1-486 partner)
As to the kind of experiment: cell-based. The settings on record: for Average response: OR49b cell line, mean of biological replicates. The essentials: as §1

In the case of (+)-beta-cedrene, the “OR13a Average response (VUAA1-normalized)” value at Drosophila OR13a (1 μM VOC), on Drosophila OR13a (10 μM VOC) and on Drosophila OR13a (100 μM VOC) was 0.00 each time. For the same compound, the “OR13a response (VUAA1-normalized response)” value on Drosophila OR13a (VOC concentration 1 μM), on Drosophila OR13a (VOC concentration 10 μM) and on Drosophila OR13a (VOC concentration 100 μM) was 0.00 in each case. Besides, the “DF norm AVERAGE OR13a” value on Drosophila OR13a (concentration 1), on Drosophila OR13a (concentration 10) and on Drosophila OR13a (concentration 100) was 0 throughout. Also, the “DF norm AVERAGE OR49b” value on Drosophila OR49b is on record as 0. The Average response on Drosophila OR49b (odorant cc. 1 µM) amounted to 0.00; on Drosophila OR49b (odorant cc. 10 µM), 0.0336; at Drosophila OR49b (odorant cc. 100 µM) it was 0.00. Also, the “OR49b response (VUAA1-normalized response)” value on Drosophila OR49b (VOC concentration 1 μM), at Drosophila OR49b (VOC concentration 10 μM) and on Drosophila OR49b (VOC concentration 100 μM) was 0.00 each time.
On to `C=C(C)[C@H]1CC=C(C)CC1` [(R)-(+)-limonene], for which the “OR13a Average response (VUAA1-normalized)” value at Drosophila OR13a (1 μM VOC) is listed as 0.00; on Drosophila OR13a (10 μM VOC), 0.0429; on Drosophila OR13a (100 μM VOC), 0.0285. Besides, the “OR13a response (VUAA1-normalized response)” value at Drosophila OR13a (VOC concentration 1 μM), on Drosophila OR13a (VOC concentration 10 μM) and at Drosophila OR13a (VOC concentration 100 μM) was 0.00 each time. The “DF norm AVERAGE OR13a” value on Drosophila OR13a (concentration 1), on Drosophila OR13a (concentration 10) and at Drosophila OR13a (concentration 100) was 0 in each case. The “DF norm AVERAGE OR49b” value at Drosophila OR49b is given as 0. The Average response at Drosophila OR49b (odorant cc. 1 µM) is reported as 0.00; at Drosophila OR49b (odorant cc. 10 µM), 0.00; on Drosophila OR49b (odorant cc. 100 µM) it was 0.0168. The “OR49b response (VUAA1-normalized response)” value at Drosophila OR49b (VOC concentration 1 μM), at Drosophila OR49b (VOC concentration 10 μM) and at Drosophila OR49b (VOC concentration 100 μM) was 0.00 in each case.

Source of the values: paper PMC10709440, “High-throughput ligand profile characterization in novel cell lines expressing seven heterologous insect olfactory receptors for the detection of volatile plant biomarkers” (Scientific Reports, 2023).
